Ten molecules from patent publication US9326978B2, “A3 adenosine receptor allosteric modulators” (The United States of America, Represented by the Secretary, …, priority 2006, dated 2016) can be followed below.

The target of one data set is human A1AR (Homo sapiens (Human), UniProt P30542). The data set can be described thus: Binding assay to the human A1AR ([3H]R-PIA). The settings on record: [3H]R-PIA (2.0 nM), CHO cells, Table 2; for Ki: read-out: Ki(hA1AR); for inhibition at 10 µM: 1 h, read-out: hA1AR % displ. at 10 μM. The protocol:
(§1) CHO (Chinese hamster ovary) cells expressing the recombinant human ARs (HEK-293 cells were used for the human A2AAR) were cultured in DMEM and F12 (1:1) supplemented with 10% fetal bovine serum, 100 units/ml penicillin, […] streptomycin and 2 μmol/ml glutamine. Cells were harvested by trypsinization. After homogenization and suspension, cells were centrifuged at 500 g for 10 min, and the pellet was re-suspended in 50 mM Tris.HCl buffer (pH 7.4) containing 10 mM MgCl2. The suspension was homogenized with an electric homogenizer for 10 sec, and was then re-centrifuged at 20,000 g for 20 min at 4° C. The resultant pellets were resuspended in buffer in the presence of 3 Units/mL adenosine deaminase, and the suspension was stored at −80° C. until the binding experiments. The protein concentration was measured using the Bradford assay.
(§2) For binding to the human A1AR, [^3H]R-PIA (2 nM) was incubated with membranes (40 μg/tube) from CHO cells stably expressing the human A1AR at 25° C. for 60 min in 50 mM Tris.HCl buffer (pH 7.4; MgCl2, 10 mM) in a total assay volume of 200 μL. Nonspecific binding was determined using 10 μM of N^6-cyclopentyladenosine. For human A2A AR binding, membranes (20 μg/tube) from HEK-293 cells stably expressing the human A2A AR were incubated with 15 nM [^3H]CGS21680 at 25° C. for 60 min in 200 μL of 50 mM Tris.HCl, pH 7.4, containing 10 mM MgCl2. N-5′-ethyluronamidoadenosine (10 μM) was used to define nonspecific binding. Reaction was terminated by filtration with GF/B filters.

For a further data set, the target named is human A2A AR (Homo sapiens (Human), UniProt P29274). The data set is described as follows: Binding assay to the human A2A AR ([3H]CGS21680). The settings on record: [3H]CGS 21680 (15 nM), HEK293 cells, Table 2; for Ki: read-out: Ki(hA2AAR). The procedure:
as §1, §2

The next data set addresses hA2BAR (Homo sapiens (Human), UniProt P29275). The data set can be described thus: Effect on NECA-induced cyclic AMP accumulation at A2B receptor. Note: NECA (150 nM)-induced cyclic AMP accumulation. The data set is classed as cell-based. The settings on record: read-out: hA2BAR % inhib. at 10 μM.
Another data set addresses human A3AR (Homo sapiens (Human), UniProt P0DMS8). The data set can be described thus: Competitive binding assay to the human A3AR ([125I]I-AB-MECA). Conditions: for inhibition at 10 µM: 1 h, read-out: hA3AR % displ. at 10 μM; for inhibition at 10 µM / Ki: [125I]I-AB-MECA (0.5 nM), CHO cells, Table 2; for Ki: read-out: Ki(hA3AR); for affinity to orthosteric versus allosteric binding sites (selective affinity): orthosteric sites of A1, A2A, A2B, A3 receptors vs allosteric site of A3 adenosine receptor. The procedure: as §1
Each tube in the competitive binding assay contained 100 μl membrane suspension (20 μg protein), 50 μl [^125I]-AB-MECA (0.5 nM), and 50 μl of increasing concentrations of the test ligands in Tris.HCl buffer (50 mM, pH 8.0) containing 10 mM MgCl2, 1 mM EDTA. Nonspecific binding was determined using 10 μM of 5′-N-ethylcarboxamidoadenosine in the buffer. The mixtures were incubated at 25° C. for 60 min. Binding reactions were terminated by filtration through Whatman GF/B filters under reduced pressure using a MT-24 cell harvester (Brandell, Gaithersburgh, Md., USA). Filters were washed three times with 9 mL ice-cold buffer. Radioactivity was determined in a Beckman 5500B γ-counter.

Data set [1] has as its target T1, human A3ARs (Homo sapiens (Human), UniProt P0DMS8). The data set is described as follows: Dissociation kinetics of [125I]I-AB-MECA from human A3ARs. The format is binding. Conditions: 0.5 h, % decrease of dissociation at 30 min, residual binding of [125I]AB-MECA after 30 min = 100%, Table 2, read-out: hA3AR Ag. Dissociation at 10 μM. The protocol: The dissociation of [^125I]I-AB-MECA was measured as follows. Membranes (20 μg) were preincubated at 25° C. with 0.5 nM [^125I]I-AB-MECA, in a total volume of 100 μl of Tris-HCl buffer (50 mM, pH 8.0) containing 10 mM MgCl2, and 1 mM EDTA for 60 min. The dissociation was then initiated by the addition of 3 μM Cl-IB-MECA with or without allosteric modulators. The time course of dissociation of total binding was measured by rapid filtration at appropriate time intervals. Nonspecific binding was measured after 60-min incubation in the presence of 3 μM Cl-IB-MECA. Further assay was as described above.

Data set [2] has as its target T1, human A3ARs. The data set is described as follows: Cyclic AMP accumulation assay, efficacy at hA3AR. The format is cell-based. Conditions: compared to maximal effect by 2-Cl-IB-MECA alone (control = 100%). The procedure: Intracellular cyclic AMP levels were measured with a competitive protein binding method (Nordstedt and Fredholm, 1990). CHO cells that expressed recombinant human A3ARs were harvested by trypsinization. After centrifugation and resuspension in medium, cells were plated in 24-well plates in 0.5 ml medium. After 24 hr, the medium was removed and cells were washed three times with 1 ml DMEM, containing 50 mM HEPES, pH 7.4. Cells were then treated with agonists and/or test compounds in the presence of rolipram (10 μM) and adenosine deaminase (3 units/ml). After 45 min forskolin (10 μM) was added to the medium, and incubation was continued an additional 15 min. The reaction was terminated by removing the supernatant, and cells were lysed upon the addition of 200 μL of 0.1 M ice-cold HCl. The cell lysate was resuspended and stored at −20° C. For determination of cyclic AMP production, protein kinase A (PKA) was incubated with [^3H]cyclic AMP (2 nM) in K2HPO4/EDTA buffer (K2HPO4, 150 mM; EDTA, 10 mM), 20 μL of the cell lysate, and 30 μL 0.1 M HCl or 50 μL of cyclic AMP solution (0-16 pmol/200 μL for standard curve). Bound radioactivity was separated by rapid filtration through Whatman GF/C filters and washed once with cold buffer. Bound radioactivity was measured by liquid scintillation spectrometry.

SMILES strings stand for the structures.

Sequence of human A1AR (P30542 whole entry): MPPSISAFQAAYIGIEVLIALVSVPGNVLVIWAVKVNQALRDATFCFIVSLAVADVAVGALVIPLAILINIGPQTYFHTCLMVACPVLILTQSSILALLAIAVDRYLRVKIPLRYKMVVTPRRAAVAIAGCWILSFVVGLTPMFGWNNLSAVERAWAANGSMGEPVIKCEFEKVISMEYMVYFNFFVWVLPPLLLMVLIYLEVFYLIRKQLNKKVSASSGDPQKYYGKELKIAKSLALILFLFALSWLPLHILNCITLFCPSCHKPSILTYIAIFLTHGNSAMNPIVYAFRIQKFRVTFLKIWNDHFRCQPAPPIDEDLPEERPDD
Sequence of hA2BAR (P29275 whole entry): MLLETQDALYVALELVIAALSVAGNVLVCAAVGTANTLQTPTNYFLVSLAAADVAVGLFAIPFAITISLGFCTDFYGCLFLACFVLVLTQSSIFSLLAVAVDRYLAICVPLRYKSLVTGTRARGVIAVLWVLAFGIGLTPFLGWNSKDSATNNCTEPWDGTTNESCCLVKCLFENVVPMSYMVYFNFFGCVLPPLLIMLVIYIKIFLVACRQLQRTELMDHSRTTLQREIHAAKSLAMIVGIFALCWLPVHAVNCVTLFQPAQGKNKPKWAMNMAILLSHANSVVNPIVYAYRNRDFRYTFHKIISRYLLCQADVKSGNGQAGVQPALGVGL
Sequence of human A2A AR (P29274 whole entry): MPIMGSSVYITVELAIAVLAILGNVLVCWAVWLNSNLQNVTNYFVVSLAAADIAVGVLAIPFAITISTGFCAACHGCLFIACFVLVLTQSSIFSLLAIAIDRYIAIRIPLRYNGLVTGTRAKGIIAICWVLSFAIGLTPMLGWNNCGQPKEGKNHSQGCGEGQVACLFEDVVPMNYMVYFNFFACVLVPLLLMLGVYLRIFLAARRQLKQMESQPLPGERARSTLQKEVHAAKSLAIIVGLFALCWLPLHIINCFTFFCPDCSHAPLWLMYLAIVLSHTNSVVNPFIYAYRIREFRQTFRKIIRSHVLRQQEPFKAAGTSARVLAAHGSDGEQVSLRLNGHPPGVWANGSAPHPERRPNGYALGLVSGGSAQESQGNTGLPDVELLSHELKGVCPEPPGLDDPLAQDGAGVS
T1 sequence (P0DMS8 whole entry): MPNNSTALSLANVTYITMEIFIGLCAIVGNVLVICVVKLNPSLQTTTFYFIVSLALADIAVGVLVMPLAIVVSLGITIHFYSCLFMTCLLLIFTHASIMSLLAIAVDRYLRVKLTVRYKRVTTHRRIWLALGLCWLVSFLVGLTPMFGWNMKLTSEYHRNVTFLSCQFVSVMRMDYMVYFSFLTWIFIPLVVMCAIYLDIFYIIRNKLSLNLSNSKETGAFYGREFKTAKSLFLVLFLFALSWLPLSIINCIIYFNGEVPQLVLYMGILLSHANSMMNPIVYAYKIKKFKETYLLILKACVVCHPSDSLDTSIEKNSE
Sequence of human A3AR (P0DMS8 whole entry): as above

`c1ccc(Nc2nc3ccccc3c3[nH]c(C4CCCC4)nc23)cc1` [Compound 30, N-Phenyl-2-cyclopentyl-1H-imidazo[4,5-c]quinolin-4-amine, reference compound]: the Ki (as a rule, a measure of affinity in units of concentration, obtained from inhibition or displacement) at human A1AR worked out at 3.42 ± 0.23 µM; on human A2A AR, 3.15 ± 0.21 µM; at human A3AR it was 0.786 ± 0.067 µM. In addition, the inhibition at 10 µM was -6.8% at hA2BAR and 90% at human A3AR. Besides, the “affinity to orthosteric versus allosteric binding sites (selective affinity)” value on human A3AR is “non-specific affinity”. Moreover, the activity at 10 µM on human A3ARs [1] is 174 ± 5%. Also, at human A3ARs [2], the “% Increase of efficacy at hA3AR at 10 μM” value amounted to 138 ± 8%.

For the molecule `Cc1ccc(Nc2nc3ccccc3c3[nH]c(C4CCCC4)nc23)cc1` [Compound 31, N-(4-Methyl-phenyl)-2-cyclopentyl-1H-imidazo[4,5-c]quinolin-4-amine], the melting point (in general, the temperature, or range, at which the solid turns liquid) is 125 to 126 °C. Besides, the Ki on human A2A AR worked out at 5.22 ± 0.32 µM. Also, the inhibition at 10 µM on hA2BAR is -4.1%. Moreover, on human A3AR, the inhibition at 10 µM amounted to 87% and the Ki turned out to be 1.19 ± 0.107 µM. For the same molecule, the activity at 10 µM on human A3ARs [1] stood at 153 ± 4%. In addition, the “% Increase of efficacy at hA3AR at 10 μM” value on human A3ARs [2] stood at 128 ± 4%.

In the case of `COc1ccc(Nc2nc3ccccc3c3[nH]c(C4CCCC4)nc23)cc1` [Compound 32, N-(4-Methoxy-phenyl)-2-cyclopentyl-1H-imidazo[4,5-c]quinolin-4-amine], the melting point was in the range of 106 to 107 °C. The Ki on human A1AR stood at 4.17 ± 0.73 µM. In addition, at human A2A AR, the “hA2AAR % displ. at 10 μM” value is recorded as “(16%)” and the Ki was more than 10 µM. Moreover, on hA2BAR, the inhibition at 10 µM came to 7.3%. Also, at human A3AR, the inhibition at 10 µM turned out to be 92% and the Ki amounted to 0.41 ± 0.064 µM. Also, the activity at 10 µM on human A3ARs [1] came to 166 ± 11%. In addition, the “% Increase of efficacy at hA3AR at 10 μM” value at human A3ARs [2] worked out at 132 ± 4%.

In the case of `Clc1ccc(Nc2nc3ccccc3c3[nH]c(C4CCCC4)nc23)cc1Cl` [Compound 33, N-(3,4-Dichloro-phenyl)-2-cyclopentyl-1H-imidazo[4,5-c]quinolin-4-amine], the melting point was 114 to 115 °C. Also, at human A1AR, the inhibition at 10 µM was 15% and the Ki is more than 10 µM. Moreover, at human A2A AR, the “hA2AAR % displ. at 10 μM” value is recorded as “(0%)” and the Ki was more than 10 µM. In addition, the inhibition at 10 µM at hA2BAR is -6.7%. On human A3AR, the inhibition at 10 µM came out at 67%, the Ki came out at 4.69 ± 0.97 µM and the “affinity to orthosteric versus allosteric binding sites (selective affinity)” value is reported as “selective affinity”. Also, the activity at 10 µM on human A3ARs [1] was determined as 144 ± 9%. Besides, on human A3ARs [2], the “% Increase of efficacy at hA3AR at 10 μM” value came to 141 ± 5%.

`Clc1ccc(Nc2nc3ccccc3c3[nH]c(C4CCCC4)nc23)cc1` [Compound 34, N-(4-Chloro-phenyl)-2-cyclopentyl-1H-imidazo[4,5-c]quinolin-4-amine] gave a melting point of 189 to 190 °C. On human A1AR, the inhibition at 10 µM was found to be 22% and the Ki was more than 10 µM. At human A2A AR, the “hA2AAR % displ. at 10 μM” value is on record as “(17%)” and the Ki was more than 10 µM. Moreover, the inhibition at 10 µM at hA2BAR is -10.2%. In addition, at human A3AR, the inhibition at 10 µM was 82% and the Ki stood at 1.61 ± 0.55 µM. Further, the activity at 10 µM at human A3ARs [1] was found to be 159 ± 5%. On human A3ARs [2], the “% Increase of efficacy at hA3AR at 10 μM” value amounted to 136 ± 3%.

`OCc1cccc(Nc2nc3ccccc3c3[nH]c(C4CCCC4)nc23)c1` [Compound 35, N-(3-Methanol-phenyl)-2-cyclopentyl-1H-imidazo[4,5-c]quinolin-4-amine] had a melting point of 228 to 230 °C. Further, on human A1AR, the inhibition at 10 µM stood at 51%. For the same molecule, the “hA2AAR % displ. at 10 μM” value on human A2A AR was 49%. In addition, on hA2BAR, the inhibition at 10 µM was -4.1%. In addition, at human A3AR, the inhibition at 10 µM amounted to 56%. Further, the activity at 10 µM on human A3ARs [1] was found to be 129 ± 15%. Besides, the “% Increase of efficacy at hA3AR at 10 μM” value on human A3ARs [2] worked out at 118 ± 4%.

For `c1ccc2c(c1)nc(Nc1ccc3c(c1)CCC3)c1nc(C3CCCC3)[nH]c12` [Compound 36, N-([3,4-c]Indan)-2-cyclopentyl-1H-imidazo[4,5-c]quinolin-4-amine], the melting point is 142 to 145 °C. The inhibition at 10 µM at human A1AR worked out at 21%. Also, the “hA2AAR % displ. at 10 μM” value on human A2A AR is given as 8%. At hA2BAR, the inhibition at 10 µM is -10.7%. The inhibition at 10 µM on human A3AR was found to be 69%. Besides, the activity at 10 µM at human A3ARs [1] turned out to be 108 ± 4%. For the same molecule, the “% Increase of efficacy at hA3AR at 10 μM” value on human A3ARs [2] is 111 ± 5%.

With `c1ccc2c(c1)nc(Nc1ccc3cn[nH]c3c1)c1nc(C3CCCC3)[nH]c12` [Compound 37, N-(1H-indazol-6-yl)-2-cyclopentyl-1H-imidazo[4,5-c]quinolin-4-amine], the melting point is 235 to 236 °C. The inhibition at 10 µM at human A1AR was 56%. Moreover, the “hA2AAR % displ. at 10 μM” value on human A2A AR was determined as 68%. The inhibition at 10 µM at hA2BAR was 5%. Also, at human A3AR, the inhibition at 10 µM stood at 67%. Moreover, on human A3ARs [1], the activity at 10 µM was determined as 109 ± 3%. Also, on human A3ARs [2], the “% Increase of efficacy at hA3AR at 10 μM” value was 96 ± 2%.

Consider `c1ccc(CNc2nc3ccccc3c3[nH]c(C4CCCC4)nc23)cc1` [Compound 40, N-(Benzyl)-2-cyclopentyl-1H-imidazo[4,5-c]quinolin-4-amine], for which the results for the inhibition at 10 µM at human A1AR, at hA2BAR and on human A3AR were 28%, -3.4% and 86%, respectively. Moreover, the “hA2AAR % displ. at 10 μM” value at human A2A AR was 77%. Besides, the activity at 10 µM on human A3ARs [1] was 145 ± 10%. For the same molecule, the “% Increase of efficacy at hA3AR at 10 μM” value at human A3ARs [2] was 147 ± 8%.

On to `Clc1ccc(Nc2nc3ccccc3c3[nH]c(C4CCC4)nc23)cc1Cl` [Compound 44, N-(3,4-Dichloro-phenyl)-2-cyclobutyl-1H-imidazo[4,5-c]quinolin-4-amine], for which the melting point was 131 to 134 °C. Moreover, on human A1AR, the inhibition at 10 µM was -5%. Moreover, at human A2A AR, the “hA2AAR % displ. at 10 μM” value is 0.4%. The inhibition at 10 µM on hA2BAR is -5.5%. The inhibition at 10 µM on human A3AR was 52%. The “% Increase of efficacy at hA3AR at 10 μM” value on human A3ARs [2] was determined as 126 ± 3%.
